Experimental data published in US4705777A, “Cationic oligopeptides having microbicidal activity” (priority 1985, dated 1987).

Legend:
Assay type in all cases: cell-based
Details in all cases: comparison to Table VI
[1] = system: Cryptococcus neoformans C-384 (Type C); assay: Antifungal assay of human neutrophil peptides
[2] = system: Staphylococcus aureus 502A; assay: Bactericidal activity of human neutrophil peptides, S. aureus
E. coli ML-35 = assay: Bactericidal activity of human neutrophil peptides, E. coli ML-35

asp cys tyr cys arg ile pro ala cys ile ala gly glu arg arg tyr gly thr cys ile tyr gln gly arg leu trp ala phe cys cys [HNP-3]
microbicidal activity compared with the other HNP, C. neoformans C-384 [1]: less microbicidal than the other oligopeptides | microbicidal activity compared with the other HNP, S. aureus 502A [2]: less microbicidal than the other oligopeptides | microbicidal activity compared with the other HNP, E. coli ML-35 (E. coli ML-35): less microbicidal than the other oligopeptides
